PubChem BioAssay AID652059 (Broad Institute, 2013)

System: D54 ERlucT glioma cells, NLG luciferase reporter, 24 h
Experiment: N-linked glycosylation inhibitors, luciferase reporter cells, dose response, cell-based, D54 ERlucT glioma, dry powder, set 5 (AID 652059)

Q: CC(=O)N[C@H]1[C@@H](O[C@@H]2OC(C[C@@H](O)C3O[C@@H](n4ccc(=O)[nH]c4=O)[C@H](O)[C@@H]3O)[C@H](O)[C@H](O)[C@H]2NC(=O)/C=C/CCCCCCCCCCC(C)C)O[C@H](CO)[C@@H](O)[C@@H]1O (stereo partly specified) was tested. Which AC40 did it give?
A: Its AC40 is 520 nM.
